In article PMC11091220, “Metabolism-driven in vitro/in vivo disconnect of an oral ERɑ VHL-PROTAC” (Communications Biology, 2024):

What was measured:
[1] = biological target: T1, ERα (Homo sapiens, UniProt P03372); assay: Western blot analysis of ERα in MCF7 cells (dose response, MG132, VHL ligand and cpd 8 competition); format: cell-based
T1 construct: endogenous in cells; host or cells: MCF7 (also MCF7 engineered to express Cas9)
T1 sequence (P03372 1-595): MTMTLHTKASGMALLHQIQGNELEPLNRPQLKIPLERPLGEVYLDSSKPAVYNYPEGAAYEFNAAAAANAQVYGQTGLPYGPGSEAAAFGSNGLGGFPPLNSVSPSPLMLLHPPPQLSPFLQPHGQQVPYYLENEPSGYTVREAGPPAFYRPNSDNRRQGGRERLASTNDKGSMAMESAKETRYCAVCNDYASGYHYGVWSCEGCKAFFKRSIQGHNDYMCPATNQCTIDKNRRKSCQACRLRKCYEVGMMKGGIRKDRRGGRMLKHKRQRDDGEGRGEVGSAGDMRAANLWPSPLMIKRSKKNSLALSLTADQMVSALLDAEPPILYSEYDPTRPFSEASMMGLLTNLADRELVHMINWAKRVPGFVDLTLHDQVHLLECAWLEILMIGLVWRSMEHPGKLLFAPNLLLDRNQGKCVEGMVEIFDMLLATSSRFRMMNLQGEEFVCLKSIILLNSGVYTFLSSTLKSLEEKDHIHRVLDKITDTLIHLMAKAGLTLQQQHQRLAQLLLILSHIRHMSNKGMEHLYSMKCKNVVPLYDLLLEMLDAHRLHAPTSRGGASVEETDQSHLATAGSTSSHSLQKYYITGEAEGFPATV
Method: Fig. 2 AZ’6421 degrades ERα through a PROTAC mechanism of action. a Immunoblots for ERα and vinculin loading control. MCF7 cells were pre-treated with 10 µM MG132 or DMSO control for 1 h before being exposed to DMSO, AZ’6421, or fulvestrant, at the concentrations indicated, for a further 7 h. A representative immunoblot from two biological replicates is shown. b As in a but cells were pre-treated with 10 µM VHL ligand (Ac-(S,R,S)-AHPC) prior to addition of DMSO, AZ’6421 or fulvestrant. c MCF7 cells expressing BFP-Cas9 were reverse transfected with the crRNA:tracrRNA pool targeting VHL for 72 h prior to treatment with increasing concentrations of AZ’6421 for a further 24 h. Cells were then fixed, stained, and imaged to assess ERα and Cas9 expression. ERα levels in Cas9 positive cells were normalised to unedited cells (0) and ESR1 KO cells (-100). Data points are from three independent experiments, points in bold represent the mean. d Structure of AZ’6421 and the (S)-prolinol epimer, 7. e Concentration-response curves for AZ’6421 and 7. ERα levels in MCF7 cells were assessed using an immunofluorescence endpoint after 24 h exposure to compound. […] Data points are from 5 (AZ'6421) or 2 (Cpd 7) independent experiments with technical duplicates performed for each experiment, bold points represent the mean. All concentration-response curves were plotted using nonlinear regression analysis in GraphPad Prism.
Fig. 6 Assessment of the cause of the in vitro/in vivo disconnect. a CTC174 tumours were disaggregated into single cells, seeded in 6-well plates and dosed with increasing concentrations of AZ’6421 for 24 hours before being lysed. ERα levels were assessed by immunoblotting. ERɑ levels normalised to vinculin and expressed as % DMSO control are shown underneath the immunoblot. b Representative IHC images taken from sections of tumour treated with vehicle control or 100 mg/kg AZ’6421 for 4 days. Sections were stained with an antibody against ERα (Sp1, Ventana). c Schematic of potential sites of metabolism d Free plasma exposure of AZ’6421 and its metabolite 8 following 100 mg/kg dosing of AZ’6421. e Concentration-response curves for AZ’6421 and metabolite 8. ERα levels in MCF7 cells were assessed using an immunofluorescence endpoint after 24 h exposure to compound. […] Points in bold represent the mean. f Effect of metabolite 8 on ERα degradation in CTC174 cells cultured ex vivo. […] MCF7 cells were pre-treated with 10 µM cpd 8 or DMSO control for 1 h before being exposed to DMSO, AZ’6421 or fulvestrant, at the concentrations indicated, for a further 24 h. A representative immunoblot from two biological replicates is shown. TEXT PRINTED IN THE PICTURE: (a) AZ'6421: ERα % of DMSO control: 20.3 (1 nM); ERα % of DMSO control: 12.0 (10 nM); ERα % of DMSO control: 4.1 (30 nM); ERα % of DMSO control: 4.2 (100 nM); ERα % of DMSO control: 3.9 (300 nM); ERα % of DMSO control: 3.6 (1000 nM)
Cells were seeded into 12-well tissue culture-treated plates at 0.5 x 10^6 cells/well in phenol red-free RPMI containing 5% (v/v) charcoal-stripped FBS (F6765, Sigma) and left to adhere overnight. In experiments to detect agonism or for SILAC experiments, FBS was double stripped using activated charcoal. Cells were treated with compound or 0.1% DMSO vehicle control for the times indicated prior to being lysed in Pierce RIPA buffer (Thermo Scientific), supplemented with protease and phosphatase inhibitors. Expression levels of proteins were determined by standard western blotting techniques (BioRad 4%-12% Bis-Tris gels). Antibodies were diluted in 5% milk-PBS-Tween and protein levels were detected using Pierce WestDura chemiluminescent reagents followed by visualisation and quantification on a Syngene ChemiGenius Imager. Where blots were quantified, protein levels were normalised to beta-actin or vinculin control and expressed as % of vehicle control.

[2] = Experimental PSA (ePSA), chromatographic method; format: physicochemical

Cc1ncsc1-c1ccc(CNC(=O)[C@@H]2C[C@@H](O)CN2C(=O)[C@@H](NC(=O)COCCCOCCCOc2cc(F)c([C@@H]3c4[nH]c5ccccc5c4C[C@@H](C)N3CC(C)(C)F)c(F)c2)C(C)(C)C)cc1 [Compound 5]
effect of MG132 pre-treatment on ERα degradation ([1]; 10 µM MG132 1 h, then compound 7 h, MCF7): attenuated ERα degradation
effect of excess acetylated-(S,R,S)-AHPC pre-treatment on ERα degradation ([1]; 10 µM VHL ligand, MCF7): partially reduced ERα degradation
effect of excess (10 µM) 8 on ERα degradation ([1]; MCF7, 100 and 300 nM, 24 h): reduce this degradation to levels achieved in the presence of 8 alone
ERα degradation ([1]; MCF7, 100 and 300 nM, 24 h, western blot): near-complete degradation of ERα
concentration giving maximal ERα degradation ([1]; MCF7, 24 hours, western blot): ≥ 10 nM
remaining activity at 1 µM ([1]; MCF7, read-out: ERa % of control): 0.87%
EPSA [2]: 98 A^2
